Data as given in ChEMBL document CHEMBL1126305, “Synthesis and antiviral properties of (+/-)-5'-noraristeromycin and related purine carbocyclic nucleosides. A new lead for anti-human cytomegalovirus agent design” (1992).
≈ marks a conversion by molar mass, not a printed value.

Tests used:
E6SM [1] = test: Minimum inhibitory concentration required to reduce virus induced cytopathicity by 50% was determined against HSV-2 virus in E6SM cells; type: functional; conditions: Homo sapiens
E6SM [2] = test: Minimum inhibitory concentration required to reduce virus induced cytopathicity by 50% was determined against TK- HSV-1 virus in E6SM cells; type: functional; conditions: Homo sapiens
E6SM [3] = test: Minimum inhibitory concentration required to reduce virus induced cytopathicity by 50% was determined against vaccinia virus in E6SM cells; type: functional; conditions: Homo sapiens
E6SM [4] = test: Minimum inhibitory concentration required to reduce virus induced cytopathicity by 50% was determined against vesicular stomatitis virus in E6SM cells; type: functional; conditions: Homo sapiens
Homo sapiens = organism: Homo sapiens; test: (§1) Minimum inhibitory concentration required to reduce virus induced cytopathicity by 50% was determined against HCMV virus in HEL cells; type: functional
HeLa [5] = test: Minimum inhibitory concentration required to reduce virus induced cytopathicity by 50% was determined against coxsackie B4 virus in HeLa cells; type: functional; conditions: Homo sapiens
HeLa [6] = test: Minimum inhibitory concentration required to reduce virus induced cytopathicity by 50% was determined against polio 1 virus in HeLa cells; type: functional; conditions: Homo sapiens
HeLa [7] = test: Minimum inhibitory concentration required to reduce virus induced cytopathicity by 50% was determined against respiratory syncytial virus in HeLa cells; type: functional; conditions: Homo sapiens
HeLa [8] = test: Minimum inhibitory concentration required to reduce virus induced cytopathicity by 50% was determined against vesicular stomatitis virus in HeLa cells; type: functional; conditions: Homo sapiens
HEL [9] = test: Minimum inhibitory concentration required to reduce virus induced cytopathicity by 50% was determined against TK- VZV virus in HEL cells; type: functional; conditions: Homo sapiens
HEL [10] = test: Minimum inhibitory concentration required to reduce virus induced cytopathicity by 50% was determined against VZV virus in HEL cells; type: functional; conditions: Homo sapiens
MDCK [11] = test: (§2) Minimum inhibitory concentration required to reduce virus induced cytopathicity by 50% was determined against influenza A virus in MDCK cells; type: functional; conditions: Canis lupus familiaris
MDCK [12] = test: (§3) Minimum inhibitory concentration required to reduce virus induced cytopathicity by 50% was determined against influenza B virus in MDCK cells; type: functional; conditions: Canis lupus familiaris
Vero [13] = test: (§4) Minimum inhibitory concentration required to reduce virus induced cytopathicity by 50% was determined against parainfluenza 3 virus in Vero cells; type: functional, Homo sapiens; conditions: Chlorocebus sabaeus
Vero [14] = test: Minimum inhibitory concentration required to reduce virus induced cytopathicity by 50% was determined against tacaribe virus in Vero cells; type: functional, Homo sapiens; conditions: Chlorocebus sabaeus
Vero [15] = test: Minimum inhibitory concentration required to reduce virus induced cytopathicity by 50% was determined against coxsackie B4 virus in Vero cells; type: functional; conditions: Chlorocebus sabaeus
Vero [16] = test: Minimum inhibitory concentration required to reduce virus induced cytopathicity by 50% was determined against junin virus in Vero cells; type: functional; conditions: Chlorocebus sabaeus
Vero [17] = test: Minimum inhibitory concentration required to reduce virus induced cytopathicity by 50% was determined against measles virus in Vero cells; type: functional; conditions: Chlorocebus sabaeus
Vero [18] = test: Minimum inhibitory concentration required to reduce virus induced cytopathicity by 50% was determined against reo type 1 virus in Vero cells; type: functional; conditions: Chlorocebus sabaeus
Vero [19] = test: Minimum inhibitory concentration required to reduce virus induced cytopathicity by 50% was determined against semliki forest virus in Vero cells; type: functional; conditions: Chlorocebus sabaeus
Vero [20] = test: Minimum inhibitory concentration required to reduce virus induced cytopathicity by 50% was determined against sindbis virus in Vero cells; type: functional; conditions: Chlorocebus sabaeus
E6SM [21] = test: Minimum inhibitory concentration required to reduce virus induced cytopathicity by 50% was determined against HSV-1 virus in E6SM cells; type: functional; conditions: Homo sapiens
Influenza A virus = test: as §2; type: functional
Influenza B virus = test: as §3; type: functional
HEL [22] = test: as §1; type: functional; conditions: Homo sapiens
Vero [23] = test: as §4; type: functional; conditions: Chlorocebus sabaeus

Row | SMILES | MIC (E6SM [1]) | MIC (E6SM [2]) | MIC (E6SM [3]) | MIC (E6SM [4]) | MIC (Homo sapiens) | MIC (HeLa [5]) | MIC (HeLa [6]) | MIC (HeLa [7]) | MIC (HeLa [8]) | MIC (HEL [9]) | MIC (HEL [10]) | MIC (Vero [13]) | MIC (Vero [14]) | MIC (Vero [15]) | MIC (Vero [16]) | MIC (Vero [17]) | MIC (Vero [18]) | MIC (Vero [19]) | MIC (Vero [20]) | MIC (E6SM [21]) | other results
1 | Nc1ncnc2c1ncn2[C@@H]1C[C@H](O)[C@@H](O)[C@H]1O [NORARISTEROMYCIN] | 300 µg/mL (≈ 1190 µM) | 20 µg/mL (≈ 79.6 µM) | 0.3 µg/mL (≈ 1.19 µM) | 0.07 µg/mL (≈ 0.279 µM) | 0.4 µg/mL (≈ 1.59 µM) | > 200 µg/mL | > 200 µg/mL | 2 µg/mL (≈ 7.96 µM) | 0.07 µg/mL (≈ 0.279 µM) | 40 µg/mL (≈ 159 µM) | 65 µg/mL (≈ 259 µM) | 0.4 µg/mL (≈ 1.59 µM) | 1 µg/mL (≈ 3.98 µM) | > 200 µg/mL | 0.5 µg/mL (≈ 1.99 µM) | 0.4 µg/mL (≈ 1.59 µM) | 0.07 µg/mL (≈ 0.279 µM) | > 200 µg/mL | > 200 µg/mL | 200 µg/mL (≈ 796 µM) | MIC (MDCK [11]): > 100 µg/mL; MIC (MDCK [12]): > 100 µg/mL
2 | O=c1[nH]c(=O)n([C@H]2C[C@H](O)[C@@H](CO)O2)cc1/C=C/Br [BRIVUDINE] | 10 µg/mL (≈ 30 µM) | 40 µg/mL (≈ 120 µM) | 7 µg/mL (≈ 21 µM) | > 400 µg/mL |  | > 400 µg/mL |  | > 400 µg/mL | > 400 µg/mL | > 10 µg/mL | 0.001 µg/mL (≈ 0.003 µM) |  |  | > 400 µg/mL | > 400 µg/mL | > 400 µg/mL | > 400 µg/mL | > 400 µg/mL | > 400 µg/mL | 0.02 µg/mL (≈ 0.06 µM) | 
3 | Nc1nc(N)c2ncn(C3C[C@H](O)[C@H](O)[C@@H]3O)c2n1 (some centres undefined) | > 300 µg/mL | > 200 µg/mL | 15 µg/mL (≈ 56.3 µM) | 2 µg/mL (≈ 7.51 µM) | 250 µg/mL (≈ 939 µM) | > 400 µg/mL | > 400 µg/mL | 50 µg/mL (≈ 188 µM) | 70 µg/mL (≈ 263 µM) | 165 µg/mL (≈ 620 µM) | 230 µg/mL (≈ 864 µM) | 20 µg/mL (≈ 75.1 µM) | 100 µg/mL (≈ 376 µM) | > 200 µg/mL | 85 µg/mL (≈ 319 µM) | 20 µg/mL (≈ 75.1 µM) | 10 µg/mL (≈ 37.6 µM) | > 200 µg/mL | > 200 µg/mL | 300 µg/mL (≈ 1130 µM) | MIC (MDCK [11]): > 100 µg/mL; MIC (MDCK [12]): > 100 µg/mL
4 | Nc1nc(O)c2ncn(C3C[C@H](O)[C@H](O)[C@@H]3O)c2n1 (some centres undefined) | > 400 µg/mL | > 300 µg/mL | > 400 µg/mL | > 400 µg/mL | 250 µg/mL (≈ 935 µM) | > 400 µg/mL | > 200 µg/mL | > 100 µg/mL | > 400 µg/mL | 235 µg/mL (≈ 879 µM) | 225 µg/mL (≈ 842 µM) | > 200 µg/mL | > 100 µg/mL | > 200 µg/mL | > 100 µg/mL | > 100 µg/mL | > 200 µg/mL | > 200 µg/mL | > 200 µg/mL | 300 µg/mL (≈ 1120 µM) | MIC (MDCK [11]): > 100 µg/mL; MIC (MDCK [12]): > 100 µg/mL
5 | Oc1ncnc2c1ncn2C1C[C@H](O)[C@H](O)[C@@H]1O (some centres undefined) | 300 µg/mL (≈ 1190 µM) | 200 µg/mL (≈ 793 µM) | > 300 µg/mL | > 300 µg/mL | 250 µg/mL (≈ 991 µM) | > 400 µg/mL | > 400 µg/mL | > 100 µg/mL | > 400 µg/mL | 250 µg/mL (≈ 991 µM) | 200 µg/mL (≈ 793 µM) | > 200 µg/mL | > 100 µg/mL | > 200 µg/mL | > 100 µg/mL | > 100 µg/mL | > 200 µg/mL | > 200 µg/mL | > 200 µg/mL | 300 µg/mL (≈ 1190 µM) | MIC (Influenza A virus): > 100 µg/mL; MIC (Influenza B virus): > 100 µg/mL
6 | NC(CCS)C(=O)Nc1ncnc2c1ncn2C1O[C@H](CO)[C@@H](O)[C@H]1O (some centres undefined) | > 400 µg/mL | > 400 µg/mL | 2 µg/mL (≈ 5.2 µM) | 0.7 µg/mL (≈ 1.82 µM) |  | > 400 µg/mL | > 400 µg/mL |  | 2 µg/mL (≈ 5.2 µM) |  |  | 0.7 µg/mL (≈ 1.82 µM) | 2 µg/mL (≈ 5.2 µM) | > 100 µg/mL | 2 µg/mL (≈ 5.2 µM) |  | 2 µg/mL (≈ 5.2 µM) | > 400 µg/mL | 20 µg/mL (≈ 52 µM) | > 400 µg/mL | 
7 | Nc1ncnc2c1ncn2[C@@H]1C=C(CO)[C@@H](O)[C@H]1O [NEOPLANOCIN A] | > 40 µg/mL | 4 µg/mL (≈ 15.2 µM) | 0.2 µg/mL (≈ 0.76 µM) | 0.2 µg/mL (≈ 0.76 µM) |  | > 40 µg/mL | > 10 µg/mL | 0.2 µg/mL (≈ 0.76 µM) | 0.2 µg/mL (≈ 0.76 µM) | 5 µg/mL (≈ 19 µM) | 8 µg/mL (≈ 30.4 µM) | 0.4 µg/mL (≈ 1.52 µM) | 0.4 µg/mL (≈ 1.52 µM) | > 40 µg/mL | 0.4 µg/mL (≈ 1.52 µM) | 0.2 µg/mL (≈ 0.76 µM) | 0.4 µg/mL (≈ 1.52 µM) | > 40 µg/mL | > 40 µg/mL | > 40 µg/mL | MIC (HEL [22]): 0.4 µg/mL (≈ 1.52 µM); MIC (MDCK [11]): > 20 µg/mL; MIC (MDCK [12]): > 20 µg/mL
8 | NC(=O)c1ncn([C@@H]2O[C@H](CO)[C@@H](O)[C@H]2O)n1 [RIBAVIRIN] | > 400 µg/mL | > 400 µg/mL | 40 µg/mL (≈ 164 µM) | 70 µg/mL (≈ 287 µM) |  | 70 µg/mL (≈ 287 µM) | 70 µg/mL (≈ 287 µM) |  | 20 µg/mL (≈ 81.9 µM) |  |  |  |  | 100 µg/mL (≈ 409 µM) |  |  | 70 µg/mL (≈ 287 µM) | 40 µg/mL (≈ 164 µM) | 40 µg/mL (≈ 164 µM) | > 400 µg/mL | MIC (Vero [23]): 20 µg/mL (≈ 81.9 µM)
